# Experimental data: PMC8966755, “In Silico and In Vitro Screening of Natural Compounds as Broad-Spectrum β-Lactamase Inhibitors against Acinetobacter baumannii New Delhi Metallo-β-lactamase-1 (NDM-1)” (BioMed Research International, 2022)
# Like-named read-outs stand apart in the source and are kept apart here.
# Columns and labels:
# [1] = tested on: PAN resistance A. baumannii clinical isolate (strain number: P-29); test: Checkerboard synergy titration assay with imipenem (FIC); type: cell-based; conditions: compound 128 mg/L with imipenem; carbapenem-resistant A. baumannii clinical strain
# Description: The combined effect of the natural compounds and imipenem (Zhejiang Hisun Pharmaceutical, China) was done using the checkerboard synergy titration assay in a 96-well microtitre plate. Imipenem was tested at concentrations of […] than their MIC and two dilutions higher than the MIC. MIC concentration of imipenem (4x) was added in all wells under column 1 of the 96-well checkerboard panel for each concentration of natural compounds (one each row). The compounds were serially diluted at different subinhibitory concentrations, and each concentration was added to the corresponding rows.
# A FIC = 0.5 for a compound was taken as synergistic, FIC > 0.5 − 4 was additive/indifferent, and FIC > 4 was taken as antagonistic.
# The checkerboard method was used to design the dilution panel, with twofold concentrations above the MIC of the antibiotics and MIC concentration and fivefold below the MIC.
# Recombinant NDM-1 enzyme = biological target: T1, Recombinant NDM-1 enzyme (Klebsiella pneumoniae, UniProt C7C422); test: biochemical
# T1 construct: purchased RayBiotech Life 230-00554-500
# Description: The NDM-1 enzyme inhibition assay was carried out spectrophotometrically using nitrocefin as a chromogenic substrate as described previously [27].
# The natural compounds were incubated with NDM-1 enzyme, and the substrate, nitrocefin, and hydrolysis of the substrate were monitored at 490 nm OD.
# β-lactamase = test: β-Lactamase enzyme inhibitory activity assay; type: biochemical; conditions: β-lactamase inhibition assay
# Description: . The percent inhibitory curves for the candidate natural compounds with efficacy for NDM-1 and β-lactamase enzyme are given in Figures 5(a) and 5(b). The natural compounds were incubated with NDM-1 enzyme, and the substrate, nitrocefin, and hydrolysis of the substrate were monitored at 490 nm OD.
# The eight candidate natural compounds identified by in silico analysis against NDM-1 were also tested for β-lactamase inhibition assay. […]
# [2] = 1 nM NDM-1, 10 μM ZnSO4, nitrocefin 60 μM, 490 nm, 30°C, compounds 10-100 μM, read-out: IC50 NDM-1 enzyme activity
# T1 sequence (C7C422 29-270 limits assumed): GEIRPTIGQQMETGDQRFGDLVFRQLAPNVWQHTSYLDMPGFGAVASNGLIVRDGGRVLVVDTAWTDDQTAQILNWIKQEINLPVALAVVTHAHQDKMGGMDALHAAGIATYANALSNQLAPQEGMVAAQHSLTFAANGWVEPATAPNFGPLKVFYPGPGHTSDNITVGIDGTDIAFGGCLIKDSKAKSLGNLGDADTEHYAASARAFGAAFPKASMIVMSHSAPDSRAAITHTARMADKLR
Compound,FIC index [1],IC50 (Recombinant NDM-1 enzyme),IC50 (β-lactamase),IC50 (Recombinant NDM-1 enzyme; [2])
CC1=C(CO)C(=O)O[C@@H]([C@@H](C)[C@H]2CC[C@H]3[C@@H]4C[C@H]5O[C@]56[C@@H](O)C=CC(=O)[C@]6(C)[C@H]4CC[C@]23C)C1 [Withaferin A],0.3125,24 ± 2.92 µM,32.8 ± 2.59 µM,
C[C@@H]1O[C@@H](OC[C@H]2O[C@@H](Oc3c(-c4ccc(O)c(O)c4)oc4cc(O)cc(O)c4c3=O)[C@H](O)[C@@H](O)[C@@H]2O)[C@H](O)[C@H](O)[C@H]1O [Rutin],,,127 ± 15.9 µM,48.9 ± 3.74 µM
"CC1(C)[C@H](C(=O)O)N2C(=O)C[C@H]2S1(=O)=O [sulbactam, reference compound]",,,7.24 ± 0.392 µM,
COc1c(O)cc2oc3cc(O)c(CC=C(C)C)c(O)c3c(=O)c2c1CC=C(C)C [Mangostin],,,136 ± 37.1 µM,97.5 ± 5.59 µM
O=c1c2cc(O)c(O)cc2oc2cc(O)c([C@@H]3O[C@H](CO)[C@@H](O)[C@H](O)[C@H]3O)c(O)c12 [Mangiferin],0.625,30.6 ± 4.41 µM,58 ± 2.08 µM,
